In patent publication US20260374739A1, “SMALL MOLECULAR WEIGHT CHEMICAL COMPOUND TO ANTAGONIZE EPH-EPHRIN TETRAMERIZATION AND INHIBIT BIDIRECTIONAL SIGNALING” (THE BOARD OF REGENTS OF THE UNIVERSITY OF TEXAS SYSTEM, priority 2022, published 2026):
“Also recorded” adds a separate entry of the source.

Columns and labels:
[1] = in vitro plasma stability; type: in vitro ADME; conditions: mouse plasma; for plasma stability: free base or salt
Procedure: FIG. 46 depicts tests of A20 and A20-I free base and salt forms for in vitro plasma stability. Compounds were provided to the UT Southwestern PK Core facility and tested for stability when incubated with mouse plasma.
To examine the drug-like nature of the disclosed compounds, tests for solubility was conducted.

[2] = test system: EphB2 tyrosine kinase, Cos1 cells; assay: EphB2 kinase activation by pre-clustered EB2-Fc in Cos1 cells, immunoblot; type: cell-based; conditions: 30 min, listed as A20
Procedure: (§1) To assess if A20 would reduce the ability of EphrinB2 to stimulate activation of the EphB tyrosine kinase domain in live cells, Cos1 cells that express endogenous EphB2 were exposed to pre-clustered EB2-Fc ectodomains in the presence or absence of A20 for 30 min. […] Stimulated cells were fixed on the coverslip and subjected to immunofluorescence (IF) with anti-Fc antibodies to detect ligand protein bound to receptor, which leads to formation of circular Eph-Ephrin tetramers that then cluster into large obvious spots on the cell surface by lateral migration through the plasma membrane and also contain anti-phosphotyrosine signal indicating activation of the receptor's kinase domain.

EphrinB1-EphB2 = EphrinB1-EphB2 (Homo sapiens, UniProt P29323); assay: Octet, immobilized human EphrinB1 binding to human EphB2
Chain of EphrinB1-EphB2 (P29323 19-543 limits assumed): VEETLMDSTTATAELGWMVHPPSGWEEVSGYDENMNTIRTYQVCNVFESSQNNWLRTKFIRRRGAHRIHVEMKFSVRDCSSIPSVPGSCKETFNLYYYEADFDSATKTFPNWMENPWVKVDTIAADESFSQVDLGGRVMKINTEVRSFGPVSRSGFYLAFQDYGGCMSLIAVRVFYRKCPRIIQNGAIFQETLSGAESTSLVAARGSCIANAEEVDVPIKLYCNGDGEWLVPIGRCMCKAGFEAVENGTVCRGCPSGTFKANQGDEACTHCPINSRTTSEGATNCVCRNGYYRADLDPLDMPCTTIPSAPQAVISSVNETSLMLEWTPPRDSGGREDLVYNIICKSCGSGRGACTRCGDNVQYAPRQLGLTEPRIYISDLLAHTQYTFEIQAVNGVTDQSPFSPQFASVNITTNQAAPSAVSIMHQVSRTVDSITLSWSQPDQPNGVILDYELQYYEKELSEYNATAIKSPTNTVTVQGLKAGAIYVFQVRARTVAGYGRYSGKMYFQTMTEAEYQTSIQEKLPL
Procedure: Studies were conducted to confirm that A20 chemicals can effectively target the human Eph/Ephrin proteins. Octet system was used to first characterize the biophysical interactions of the human B class Eph and Ephrin proteins, and then was tested to assess how A20 may disrupt the interactions. Since the human and rodent proteins are highly conserved, and essentially identical, with EphB2 sharing 99.5% identity between human and mouse, with only 5 of ~1,000 amino acids different, any species-specific differences were not anticipated. Therefore, commercially available human EphrinB1-Fc (EB1), EphrinB2-Fc (EB2), and EphrinB3-Fc (EB3) ectodomain proteins were sparsely immobilized onto biosensors and then exposed to 50 nM of soluble human EphB1-His, EphB2-His, and EphB4-His ectodomains for 800 sec association and 1,000 sec dissociation steps with a total of nine different interactions analyzed. In the absence of A20 chemical, the immobilized human EphrinB proteins bound to their appropriate human EphB target proteins; with EphrinB1 only bound EphB1 and EphB2, EphrinB2 bound all three EphB1, EphB2, and EphB4, and EphrinB3 only bound EphB1 and EphB2 (FIG. 19A-19B).
Addition of compound also altered dissociation kinetics. […] This is referred to as the “unsurmountable” component of the Eph-Ephrin interaction (FIG. 21C). Additionally, AUC data was graphed for these runs (FIG. 21D). […]

EphB2, Cos1 cells = assay: ligand:receptor cluster (spot) formation in Cos1 cells, immunofluorescence; type: cell-based; conditions: A20 40 μM; listed as A20
Procedure: FIG. 14 depicts representative fluorescent images and quantification showing that Cos1 cells exposed to pre-clustered EB2-Fc binds to EphB2 forming spots on the cell (green) that also contain phosphotyrosine (red, arrows).
as §1

EphB1-EB2 = molecular target: T1, EphB1-EB2 (Rattus norvegicus, UniProt P09759); assay: ELISA EB2-His binding to immobilized EphB1-Fc; set-up: species or system mouse EB2; conditions: 5 μM
T1 construct: mouse (Mus musculus) EB2-His ectodomain (Sino Biologicals), ELISA
T1 sequence (P09759 18-538): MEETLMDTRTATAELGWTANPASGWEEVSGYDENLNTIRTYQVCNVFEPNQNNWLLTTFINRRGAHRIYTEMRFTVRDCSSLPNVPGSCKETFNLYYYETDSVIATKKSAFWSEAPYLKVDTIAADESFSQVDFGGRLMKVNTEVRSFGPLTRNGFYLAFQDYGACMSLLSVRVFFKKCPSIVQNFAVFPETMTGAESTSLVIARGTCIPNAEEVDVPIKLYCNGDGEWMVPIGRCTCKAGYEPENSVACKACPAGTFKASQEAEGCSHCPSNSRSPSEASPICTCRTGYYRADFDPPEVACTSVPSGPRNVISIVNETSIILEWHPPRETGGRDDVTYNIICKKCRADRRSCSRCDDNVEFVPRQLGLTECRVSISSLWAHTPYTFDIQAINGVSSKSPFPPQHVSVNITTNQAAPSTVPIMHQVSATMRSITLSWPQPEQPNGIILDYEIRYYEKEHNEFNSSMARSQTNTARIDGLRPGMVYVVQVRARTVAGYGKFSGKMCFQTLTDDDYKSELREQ
Procedure: The 32 hits were then subjected to ELISA in which EphB1-Fc was first immobilized in 96 well Protein A plates, then soluble EB2-His was added with hit compound in triplicate, again at 5 μM. After 2 hr at RT to allow EB2-His binding to EphB1-Fc, wells were washed, incubated with nickel-activated horseradish peroxidase (HisProbe-HRP) to detect bound EB2-His protein, washed, and then incubated with ELISA Pico Chemiluminescent Substrate (both from Thermo-Fisher) before being read in a luminometer. A single-protein counter ELISA using the dual-tagged EphB2-His-Fc ectodomain protein was also run. […] For simplicity, we call this compound A20.

[3] = test system: normal human dermal fibroblast (NHDF) cells; assay: MTT cytotoxicity; type: cell-based; conditions: up to 10 μM, 48 hr
Procedure: Potential cytotoxicity of A20 was evaluated using MTT assay performed after culturing normal human dermal fibroblast (NHDF) cells with increasing concentrations of A20 for 48 hr.

[4] = test system: morphine withdrawal in mice; assay: naloxone-precipitated morphine withdrawal behaviors; type: in vivo, mouse; conditions: 30 mg/kg IP, 4×12 hr
Procedure: Eight month old male EphB1^+/+ WT mice EphB1^−/− KO mice from the Henkemeyer mouse colony were injected intraperitoneally (IP) with increasing morphine doses in normal saline every 12 h for 4 consecutive days (day 1:20 mg/kg, day 2:40 mg/kg, day 3:60 mg/kg, day 4:80 mg/kg) and on the fifth day in the morning they were injected with a final 100 mg/kg morphine dose which was staggered by one mouse every 30 minutes. Exactly 3 h after the last morphine injection, each mouse was weighed, and withdrawal was precipitated using naloxone hydrochloride that was subcutaneously injected at 1 mg/kg. Withdrawal signs were then monitored by an examiner who was blinded to animal genotypes for 30 min after naloxone administration to identify the number of jumps, wet dog shakes, and diarrhea events observed in the 30 min period, and % change in weight from before naloxone administration to 30 min post withdrawal. For tremor and ptosis, the presence of tremor and/or a drooping upper eyelid is monitored at the beginning of each 5 min interval during the 30 min monitoring period.
WT CD1 mice was used in one experiment and WT C57BL/6 mice was used in the other. All mice were 4-5-month-old males. In both cases, 30 mg/kg A20 free base dissolved in 6% DMSO/94% sunflower seed oil was administered in 4×12 hr IP dosings to mice that were at an entering dose 6 of a 9×12 hr IP schedule of escalating morphine (2×20, 2×40, 2×60, 2×80, and 1×100 mg/kg). Naloxone was given exactly 3 hr after the last A20/morphine dose and withdrawal behaviors were monitored for 30 min. Both groups of mice were scored for jumping (FIG. 70A) and the C57BL/6 mice were additionally scored at 5 min intervals for diarrhea, tremor, and ptosis (FIG. 70B). […] In summary, A20 tetramerization inhibitor compounds serve to help reduce the adverse effects of opioid use and abuse, and could possibly be used to help wean people off of terribly addictive narcotic drugs.

SMILES: Oc1c(Br)cc(CN2CCOCC2)c2cccnc12 [Compound 5, 7-bromo-5-(morpholinomethyl)quinolin-8-ol]
- plasma stability [1]: quite stable
- EphB2 kinase activity [2]: caused a dose-dependent reduction in EphB2 kinase activity; also recorded: antagonizes EB2 stimulation of EphB2 catalytic activity
- inhibition at 1 µM (EphrinB1-EphB2; EB1-EphB2, A20, read-out: reduction of tetramers): ~45%
- IC (maximum) (EphrinB1-EphB2; read-out: concentration producing maximum inhibition): 1 µM
- ligand:receptor clusters on cell (EphB2, Cos1 cells): significantly reduced the ability of pre-clustered EB2-Fc to bind/cluster the EphB2 receptor to spots on the cell; also recorded: reduced the number of ligand: receptor clusters per cell
- ELISA signal (EphB1-EB2): reduced signal in the two-protein ELISA
- cytotoxicity [3]: not toxic
- diarrhea and ptosis [4]: did not show signs of diarrhea or ptosis
- jumps [4]: significantly fewer jumps
- tremor reduction [4]: 50%

SMILES: Oc1c(I)cc(CN2CCOCC2)c2cccnc12 [Compound 7, 7-iodo-5-(morpholinomethyl)quinolin-8-ol]
- plasma half-life longer than A20 [1]: 3-5 times
- plasma stability [1]: superior stability
